The target in one assay is PDL1/PD1 (Homo sapiens, UniProt Q9NZQ7). Briefly: PDL1/PD1 Binding Assay. As to conditions: PDL1-6×His 0.3 nM, PD1-Fc-Avi-Biotin 2.5 nM, Acceptor/Donor beads; read-out: PD-1/PD-L1 PPI IC50. As to the method:
Compounds to be tested were serially diluted in DMSO, and further diluted in assay buffer (25 mM Hepes pH 7.4, 150 mM NaCl, 0.005% Tween 20, BSA 0.01%). Diluted compounds were added to the wells with final concentration of DMSO at 1%. PDL1-6×His protein was added to the wells, mixed well with compound. The plates were incubated for 30 min at room temperature. PD1-Fc-Avi-Biotin protein was added to the wells. Final concentration of PDL1 and PD1 protein is 0.3 nM and 2.5 nM, respectively. After a binding time of 30 min at room temperature, Anti-6×His Acceptor beads (final concentration 20 ug/ml) were added to the wells, and the incubation continued for 1 h. Streptavidin Donor beads (final concentration 20 ug/mL) were added at reduced light. The plates were sealed with foil and incubated in the dark for additional 1 h or overnight before reading on an Envision reader. The IC50 values were determined by fitting the curves using a four-parameter equation in Graphpad Prism 8.

The next assay addresses T1, PD-1/PD-L1 interaction (Homo sapiens, UniProt Q9NZQ7).
T1 construct: expressed in transfected cells; Jurkat cells (PD-1 plus NFAT-luciferase)
Briefly: PD-1/PD-L1 NFAT Reporter Assay. In kind it is cell-based. Conditions: co-culture of PD-L1 expressing CHO cells and PD-1 overexpressing Jurkat cells, 6 hrs, NFAT luciferase. The method, then:
Blocking the PD-1/PD-L1 interaction will release the inhibitory signal and results in TCR signaling and NFAT-mediated luciferase activity.
CHO cells expressing surface-bound anti-CD3 antibodies and PD-L1 were first seeded overnight and treated with the compounds. Jurkat cells overexpressing PD-1 and a luciferase construct under NFAT promoter were then immediately seeded on the monolayer of CHO cells. The co-culture was then incubated for 6 hrs at 37° C. Luciferase activity was assessed by adding the ONE-Glo reagent and measuring luminescence with a plate reader. EC50 values were determined from the fit of the dose-response curves.
In general terms: A reporter such as luciferase makes a cellular process visible.

Structures are written as SMILES.

T1 sequence (Q9NZQ7 19-290): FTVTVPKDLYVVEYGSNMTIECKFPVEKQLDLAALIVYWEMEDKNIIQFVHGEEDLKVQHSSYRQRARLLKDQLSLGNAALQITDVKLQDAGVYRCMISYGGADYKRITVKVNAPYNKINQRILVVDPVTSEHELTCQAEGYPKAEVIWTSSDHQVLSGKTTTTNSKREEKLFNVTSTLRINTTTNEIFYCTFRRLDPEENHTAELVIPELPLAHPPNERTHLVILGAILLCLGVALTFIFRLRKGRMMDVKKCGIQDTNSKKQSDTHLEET
Sequence of PDL1/PD1 (Q9NZQ7 19-238 limits assumed): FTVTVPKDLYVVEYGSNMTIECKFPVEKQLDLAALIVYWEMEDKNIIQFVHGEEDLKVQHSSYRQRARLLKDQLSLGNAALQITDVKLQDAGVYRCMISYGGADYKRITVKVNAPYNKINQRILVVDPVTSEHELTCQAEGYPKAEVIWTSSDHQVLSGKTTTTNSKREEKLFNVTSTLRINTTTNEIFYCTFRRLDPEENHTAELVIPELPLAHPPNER

As usually defined, the EC50 is the concentration needed to bring the measured effect to its halfway point. Read a low EC50 as higher potency in that assay. For the molecule `COc1nc(-c2cccc(-c3cccc(NC(=O)c4ccnn(C)c4=O)c3Cl)c2Cl)ccc1CN1CCN(C(=O)OC(C)(C)C)[C@H](C(=O)O)C1` [Compound C-23], the IC50 at PDL1/PD1 was not above 10 nM. At PD-1/PD-L1 interaction, this molecule yielded an EC50 of more than 5000 nM.

Regarding `COc1nc(-c2cccc(-c3cccc(NC(=O)c4ccnn(C)c4=O)c3C)c2F)cc(C)c1CNC[C@@H]1CCC(=O)N1` [Compound B-4], at PDL1/PD1, the IC50 was not above 10 nM. The molecule further displayed an EC50 on PD-1/PD-L1 interaction of 10 to 100 nM. For `CCOC(=O)[C@H]1CCN(Cc2ccc(-c3cccc(-c4cccc(NC(=O)c5ccnn(C)c5=O)c4C)c3Cl)nc2OC)C1` [Compound C-55], in that order: not above 10 nM and 10 to 100 nM. `CCOC(=O)CCN(Cc1ccc(-c2cccc(-c3cccc(NC(=O)c4ccnn(C)c4=O)c3Cl)c2Cl)nc1OC)C(=O)OCc1oc(=O)oc1C` [Compound F-1] returned an EC50 at PD-1/PD-L1 interaction of 100 to 1000 nM.

For the molecule `COc1nc(-c2cccc(-c3cccc(NC(=O)c4ccnn(C)c4=O)c3Cl)c2Cl)cnc1CN1CC2(CCC(=O)N2)C1` [Compound A-1], the IC50 on PDL1/PD1 was not above 10 nM. Besides, the EC50 on PD-1/PD-L1 interaction was 10 to 100 nM. `COc1nc(-c2cccc(-c3cccc(NC(=O)c4ccnn(C)c4=O)c3C)c2Cl)ccc1CN1CC2(C1)CN(C(C)=O)C2` [Compound C-64]: the IC50 at PDL1/PD1 is not above 10 nM. In addition, at PD-1/PD-L1 interaction, the EC50 was in the range of 10 to 100 nM.

As for `COc1nc(-c2cccc(-c3cccc(NC(=O)c4ccn[nH]c4=O)c3Cl)c2Cl)cnc1CN1CC2(CCC(=O)N2)C1` [Compound A-2], the IC50 at PDL1/PD1 was not above 10 nM. Moreover, the half-maximal effective concentration (EC50) at PD-1/PD-L1 interaction is 10 to 100 nM. For `COc1nc(-c2cccc(-c3cccc(NC(=O)c4ccnn(C)c4=O)c3Cl)c2Cl)ccc1CN[C@H](C(=O)O)C(C)C` [Compound C-28] the same measures were not above 10 nM and 100 to 1000 nM. For `COc1nc(-c2cccc(-c3cccc(NC(=O)c4ccnn(C)c4=O)c3Cl)c2Cl)ccc1CN1CC[C@H](O)C1` [Compound C-50], in that order: not above 10 nM and not above 10 nM. For `COc1nc(-c2cccc(-c3cccc(NC(=O)c4ccnn(C)c4=O)c3Cl)c2Cl)ccc1CN1CCCC[C@H]1C(=O)O` [Compound C-10], the IC50 on PDL1/PD1 was not above 10 nM. The molecule also gave a concentration giving a half-maximal response (EC50) on PD-1/PD-L1 interaction of 100 to 1000 nM. As for `COc1nc(-c2cccc(-c3cccc(NC(=O)c4ccnn(C)c4=O)c3Cl)c2Cl)ccc1CN1C[C@@H](C(=O)O)C(C)(C)C1` [Compound C-48], the IC50 on PDL1/PD1 was not above 10 nM. At PD-1/PD-L1 interaction, this molecule displayed an EC50 of 100 to 1000 nM. For `COc1nc(-c2cccc(-c3cccc(NC(=O)c4ccnn(C)c4=O)c3C)c2Cl)ccc1CN1CC[C@@H](C(=O)O)C1` [Compound C-58], in that order: not above 10 nM and 10 to 100 nM.

`COc1nc(-c2cccc(-c3cccc(NC(=O)c4ccnn(C)c4=O)c3C)c2Cl)ccc1CNC1CCN(C(C)=O)C[C@@H]1O` (stereo in doubt) [Compound C-69]: on PDL1/PD1, the IC50 was not above 10 nM. For the same molecule, the EC50 on PD-1/PD-L1 interaction was not above 10 nM. Consider `COc1nc(-c2cccc(-c3cccc(NC(=O)c4ccnn(C)c4=O)c3Cl)c2Cl)ccc1CN[C@@H](C)C(=O)O` [Compound C-29], for which, at PDL1/PD1, the IC50 was not above 10 nM. In addition, the EC50 on PD-1/PD-L1 interaction was 10 to 100 nM. `CCOC(=O)[C@@H]1CCN(Cc2ccc(-c3cccc(-c4cccc(NC(=O)c5ccnn(C)c5=O)c4Cl)c3Cl)nc2OC)C1` [Compound C-14]: the IC50 at PDL1/PD1 lay in the range of 10 to 100 nM. On PD-1/PD-L1 interaction, this molecule showed a concentration for a half-maximal effect (EC50) of 10 to 100 nM.

As for `COC(=O)C12CCC(CC1)N(Cc1ccc(-c3cccc(-c4cccc(NC(=O)c5ccnn(C)c5=O)c4Cl)c3Cl)nc1OC)C2` [Compound C-22], the IC50 on PDL1/PD1 was not above 10 nM. Besides, on PD-1/PD-L1 interaction, the EC50 was in the range of 100 to 1000 nM. For `COc1nc(-c2cccc(-c3cccc(NC(=O)c4ccnn(C)c4=O)c3C)c2Cl)ccc1CN1CC(C(=O)O)C1` [Compound C-54], in that order: not above 10 nM and 10 to 100 nM. For the molecule `COc1nc(-c2cccc(-c3cccc(NC(=O)c4ccnn(C)c4=O)c3Cl)c2Cl)ncc1CN1CC(C(=O)O)C1` [Compound C-80], on PDL1/PD1, the IC50 is not above 10 nM. For the same molecule, the EC50 on PD-1/PD-L1 interaction fell in the range of 10 to 100 nM. For `COc1nc(-c2cccc(-c3cccc(NC(=O)c4ccnn(C)c4=O)c3Cl)c2Cl)ccc1CNC[C@@H](C)O` [Compound C-4] the same measures were not above 10 nM and not above 10 nM. Regarding `COc1nc(-c2cccc(-c3cccc(NC(=O)c4ccnn(C)c4=O)c3Cl)c2Cl)ccc1CNC1CCC[C@@H]1C(=O)O` (stereo partly drawn) [Compound C-39], the IC50 on PDL1/PD1 was not above 10 nM. This molecule yielded an EC50 at PD-1/PD-L1 interaction of 10 to 100 nM. For the molecule `COc1cc(C(=O)Nc2cccc(-c3cccc(-c4ccc(CN[C@@H]5CCOC[C@@H]5O)c(OC)n4)c3Cl)c2Cl)c(=O)n(C)n1` [Compound C-92], the IC50 at PDL1/PD1 was not above 10 nM. This molecule also yielded an EC50 at PD-1/PD-L1 interaction of 10 to 100 nM.

Take `COc1nc(-c2cccc(-c3cccc(NC(=O)c4ccnn(C)c4=O)c3Cl)c2Cl)ccc1CN[C@@H]1CCOC[C@@H]1O` [Compound C-1]: the IC50 on PDL1/PD1 was not above 10 nM. In addition, the concentration for a half-maximal effect (EC50) at PD-1/PD-L1 interaction is more than 10000 nM. Turning to `COc1nc(-c2cccc(-c3cccc(NC(=O)c4ccnn(C)c4=O)c3Cl)c2Cl)ccc1CN1CCO[C@@H](C(=O)O)C1` [Compound C-30], the IC50 on PDL1/PD1 was not above 10 nM. On PD-1/PD-L1 interaction, the EC50 lay within 100 to 1000 nM. `COc1nc(-c2cccc(-c3cccc(NC(=O)c4ccnn(C)c4=O)c3C)c2C)ccc1CN1C[C@@H](O)[C@@H]1C` [Compound C-74] had a concentration giving a half-maximal response (EC50) at PD-1/PD-L1 interaction of more than 5000 nM. For the molecule `COc1nc(-c2cccc(-c3cccc(NC(=O)c4ccnn(C)c4=O)c3Cl)c2Cl)ccc1CN1CC(C(=O)O)C1` [Compound C-9], the IC50 at PDL1/PD1 is not above 10 nM. On PD-1/PD-L1 interaction, this molecule registered a concentration giving a half-maximal response (EC50) not above 10 nM.

Turning to `COc1nc(-c2cccc(-c3cccc(NC(=O)c4ccnn(C)c4=O)c3C)c2Cl)ccc1CN1CC(O)C1` [Compound C-66], on PDL1/PD1, the IC50 is not above 10 nM. For the same molecule, the EC50 at PD-1/PD-L1 interaction is 10 to 100 nM. For `COC(=O)C1(F)CN(Cc2ccc(-c3cccc(-c4cccc(NC(=O)c5ccnn(C)c5=O)c4Cl)c3Cl)nc2OC)C1` [Compound C-18], in that order: not above 10 nM and 10 to 100 nM. In turn, `COc1nc(-c2cccc(-c3cccc(NC(=O)c4ccnn(C)c4=O)c3Cl)c2Cl)cnc1CN[C@@H]1CCOC[C@@H]1O` [Compound C-83] displayed an EC50 at PD-1/PD-L1 interaction of 10 to 100 nM. As to `CCOC(=O)C1CN(Cc2ccc(-c3cccc(-c4cccc(NC(=O)c5ccnn(C)c5=O)c4C)c3Cl)nc2OC)C1` [Compound C-53], on PDL1/PD1, the IC50 is not above 10 nM. For the same molecule, the EC50 on PD-1/PD-L1 interaction was in the range of 10 to 100 nM. For the molecule `COc1nc(-c2cccc(-c3cccc(NC(=O)c4ccnn(C)c4=O)c3Cl)c2Cl)ccc1CN1CC2(C(=O)O)CCC1CC2` [Compound C-27], the IC50 at PDL1/PD1 was not above 10 nM. At PD-1/PD-L1 interaction, this molecule displayed an EC50 of 100 to 1000 nM. For `COc1nc(-c2cccc(-c3cccc(NC(=O)c4ccnn(C)c4=O)c3C)c2C)ccc1CN[C@@H]1CCOC[C@H]1O` [Compound C-70], the IC50 at PDL1/PD1 was not above 10 nM. Moreover, the EC50 on PD-1/PD-L1 interaction is 10 to 100 nM. With `COc1nc(-c2cccc(-c3cccc(NC(=O)c4ccnn(C)c4=O)c3C)c2Cl)ccc1CN[C@@H]1CCOC[C@@H]1O` [Compound C-52], the EC50 on PD-1/PD-L1 interaction is more than 5000 nM. On the same count and under the same terms, the result for `COc1nc(-c2cccc(-c3cccc(NC(=O)c4ccnn(C)c4=O)c3C)c2Cl)cnc1CN1CC(O)C1` [Compound C-86] reads not above 10 nM; that for `CCOC(=O)[C@@H](O)CNCc1ccc(-c2cccc(-c3cccc(NC(=O)c4ccnn(C)c4=O)c3Cl)c2Cl)nc1OC` [Compound G-1], 10 to 100 nM; that for `CCOC(=O)CCNCc1ccc(-c2cccc(-c3cccc(NC(=O)c4ccnn(C)c4=O)c3Cl)c2Cl)nc1OC` [Compound C-94], 10 to 100 nM. On the same count and under the same terms, then `COc1nc(-c2cccc(-c3cccc(NC(=O)c4ccnn(C)c4=O)c3Cl)c2Cl)cnc1CN1CC(O)C1` [Compound C-84], with 10 to 100 nM; and `CCOC(=O)[C@@H]1CN(Cc2ccc(-c3cccc(-c4cccc(NC(=O)c5ccnn(C)c5=O)c4Cl)c3Cl)nc2OC)C(=O)O1` [Compound H-1], with more than 5000 nM. As to `CCOC(=O)C1(C)CN(Cc2ccc(-c3cccc(-c4cccc(NC(=O)c5ccnn(C)c5=O)c4C)c3Cl)nc2OC)C1` [Compound C-59], the IC50 at PDL1/PD1 was not above 10 nM. On PD-1/PD-L1 interaction, `COc1nc(-c2cccc(-c3cccc(NC(=O)c4ccnn(C)c4=O)c3Cl)c2Cl)cnc1CN1CC[C@H](O)C1` [Compound C-85] had an EC50 not above 10 nM. The molecule `COc1nc(-c2cccc(-c3cccc(NC(=O)c4ccnn(C)c4=O)c3Cl)c2Cl)ccc1CN1CC(C(=O)NS(C)(=O)=O)C1` [Compound C-46] registered a half-maximal effective concentration (EC50) on PD-1/PD-L1 interaction of 10 to 100 nM. The same measure, in the same setting: then `COc1nc(-c2cccc(-c3cccc(NC(=O)c4ccnn(C)c4=O)c3Cl)c2Cl)ccc1CN[C@@H]1CN(C(C)=O)C[C@@H]1O` [Compound C-45], with 10 to 100 nM. Same read-out and setting: the result for `COc1nc(-c2cccc(-c3cccc(NC(=O)c4ccnn(C)c4=O)c3C)c2Cl)ccc1CN1CC(F)(C(=O)O)C1` [Compound C-62] reads 100 to 1000 nM; that for `COc1nc(-c2cccc(-c3cccc(NC(=O)c4ccnn(C)c4=O)c3Cl)c2Cl)ccc1CNCCC(=O)O` [Compound C-93], 10 to 100 nM; that for `COc1nc(-c2cccc(-c3cccc(NC(=O)c4ccnn(C)c4=O)c3C)c2C)ccc1CN[C@@H]1CCOC[C@@H]1O` [Compound C-71], not above 10 nM.

The values are drawn from patent US12428427B2, “Methods and compositions for targeting PD-L1” (Aligos Therapeutics, Inc., priority 2021, dated 2025).
